Patent US10308607B2, “Fucosidase inhibitors” (HORIZON ORPHAN LLC, priority 2015, dated 2019)
Like-named read-outs stand apart in the source and are kept apart here.

Experiments:
[1] = tested on: HepG2 cells; experiment: Metabolic labeling with tagged-fucose, flow cytometry; type: cell-based, human
Experimental: Perturbations in glycoprotein metabolism were assayed by growing HepG2 cells without fucosidase inhibitors, or with compound II, III, or IV (see Example 2) for 24 hours, and then adding (3S,4R,5R,6S)-6-ethynyltetrahydro-2H-pyran-2,3,4,5-tetrayl tetra acetate, a per-acetylated analog of fucose containing an alkyne moiety in place of the 5′-methyl group (Click-iT™ Fucose Alkyne, Molecular Probes, Eugene, Oreg.) for an additional 48 hours. Cells were fixed, permeabilized, washed, and stained with Alexa Fluor 488 Azide to orthogonally label glycoproteins incorporating the fucose analog. Cells were then analyzed for fluorescence using a Guava 6HT-2L flow cytometer (ThermoFisher).

[2] = tested on: HUVEC; experiment: Multiplexed cytotoxicity assay; type: cell-based; settings: normal endothelium, 72 hour
Experimental: (§1) To assess the cytotoxicity of compound II (see Example 2) in cancer and normal cells, the cells were grown in RPMI1640, 10% FBS, 2 mM L-alanyl-L-Glutamine, 1 mM Na Pyruvate or a special medium in a humidified atmosphere of 5% CO2 at 37° C. Cells were seeded into 384-well plates and incubated in a humidified atmosphere of 5% CO2 at 37° C. Compound II was added 24 hours post cell seeding. At the same time, a time zero untreated cell plate was generated.
(§2) After a 72 hour incubation period, cells were fixed and stained with fluorescently labeled antibodies and nuclear dye to allow visualization of nuclei, apoptotic cells and mitotic cells. Apoptotic cells were detected using an anti-active caspase-3 antibody. Mitotic cells were detected using an anti phospho-histone-3 antibody.
(§3) Compound II was serially diluted 3.16-fold and assayed over 9 concentrations. Automated fluorescence microscopy was carried out using a GE Healthcare IN Cell Analyzer 1000, and images were collected with a 4× objective.
(§4) Twelve bit tiff images were acquired using the InCell Analyzer 1000 3.2 and analyzed with Developer Toolbox 1.6 software. EC50 and IC50 values were calculated using nonlinear regression to fit data to a sigmoidal 4 point, 4 parameter One-Site dose response model, where: y (fit)=A+[(B−A)/(1+((C/x)^D))]. Curve-fitting, EC50/IC50 calculations and report generation are performed using a custom data reduction engine MathIQ based software (AIM).
(§5) The multiplexed cytotoxicity assay uses a cell image based analysis technique where cells are fixed and stained with fluorescently labeled antibodies and nuclear dye to visualize nuclei, and apoptotic and mitotic cells. Apoptotic cells are detected using an anti-active caspase-3 antibody. Mitotic cells are detected using an anti phospho-histone-3 antibody. Cell proliferation is measured by the signal intensity of the incorporated nuclear dye. The cell proliferation assay output is referred to as the relative cell count. To determine the cell proliferation end point, the cell proliferation data output is transformed to percent of control (POC) using the following formula: POC=relative cell count(compound wells)/relative cell count(vehicle wells)×100.
(§6) Relative cell count IC50 is the test compound concentration at 50% of maximal possible response. A relative cell count EC50 is the test compound concentration at the curve inflection point or half the effective response (parameter C of the fitted curve solution). GI50 is the concentration needed to reduce the observed growth by half. This is the concentration that inhibits the growth midway between untreated cells and the number of cells seeded in the well (Time zero value).
(§7) The activated caspase-3 marker labels cells from early to late stage apoptosis. The output is shown as a fold increase of apoptotic cells over vehicle background normalized to the relative cell count in each well. Concentrations of test compound that cause a 5-fold induction in the caspase-3 signal indicates significant apoptosis induction. Wells with concentrations higher than the relative cell count IC95 are eliminated from the caspase3 induction analysis.
(§8) The phospho-histone-3 marker labels mitotic cells. The output is shown as a fold induction of mitotic cells over vehicle background normalized to the relative cell count in each well. When the fold induction of mitotic cell signal over background is ˜1, there is “no effect” on the cell cycle. Two or more fold increase in phospho-histone-3 signal over vehicle background indicates significant test compound induction of mitotic block.
(§9) Two or more fold decrease in the phospho-histone-3 signal may indicate G1/S block only when cytotoxicity levels are below the measured relative cell count IC95. […]

[3] = tested on: HeLa; experiment: Multiplexed cytotoxicity assay; type: cell-based; settings: cervix carcinoma, 72 hour
Experimental: as §1, §2, §3, §4, §5, §6, §7, §8, §9

[4] = tested on: A549; experiment: Multiplexed cytotoxicity assay; type: cell-based; settings: A549, lung carcinoma, 72 hour
Experimental: as §1, §2, §3, §4, §5, §6, §7, §8, §9

[5] = tested on: HT-1080; experiment: Multiplexed cytotoxicity assay; type: cell-based; settings: HT-1080, connective sarcoma, 72 hour
Experimental: as §1, §2, §3, §4, §5, §6, §7, §8, §9

[6] = Multiplexed cytotoxicity assay; type: cell-based; settings: human, read-out: Cytotoxic EC50
Experimental: as §1, §2, §3, §4, §5, §6, §7, §8, §9

[7] = tested on: NHDF; experiment: Multiplexed cytotoxicity assay; type: cell-based; settings: normal skin, 72 hour
Experimental: as §1, §2, §3, §4, §5, §6, §7, §8, §9

[8] = tested on: SKOV3; experiment: Multiplexed cytotoxicity assay; type: cell-based; settings: SKOV3, ovary carcinoma, 72 hour
Experimental: as §1, §2, §3, §4, §5, §6, §7, §8, §9

[9] = tested on: K562; experiment: Multiplexed cytotoxicity assay; type: cell-based; settings: K562, blood leukemia, 72 hour
Experimental: as §1, §2, §3, §4, §5, §6, §7, §8, §9

[10] = tested on: U-87 MG; experiment: Multiplexed cytotoxicity assay; type: cell-based; settings: brain blastoma, 72 hour
Experimental: as §1, §2, §3, §4, §5, §6, §7, §8, §9

[11] = tested on: HUMSC; experiment: Multiplexed cytotoxicity assay; type: cell-based; settings: normal mesenchymal stem, 72 hour
Experimental: as §1, §2, §3, §4, §5, §6, §7, §8, §9

[12] = tested on: BxPC-3; experiment: Multiplexed cytotoxicity assay; type: cell-based; settings: BxPC-3, pancreas carcinoma, 72 hour
Experimental: as §1, §2, §3, §4, §5, §6, §7, §8, §9

[13] = tested on: HRPTEpiC; experiment: Multiplexed cytotoxicity assay; type: cell-based; settings: normal renal, 72 hour
Experimental: as §1, §2, §3, §4, §5, §6, §7, §8, §9

[14] = tested on: HPH; experiment: Multiplexed cytotoxicity assay; type: cell-based; settings: normal primary hepatocyte, 72 hour
Experimental: as §1, §2, §3, §4, §5, §6, §7, §8, §9

[15] = Multiplexed cytotoxicity assay; type: cell-based, human; settings: human, HepG2 cells (liver carcinoma), read-out: Cytotoxic EC50
Experimental: as §1, §2, §3
as §4, with “Curve-fitting, EC50/IC50 calculations and report generation are performed using a custom data reduction engine MathIQ based software (AIM).” left out

[16] = tested on: HepG2; experiment: Multiplexed cytotoxicity assay; type: cell-based, human; settings: HepG2, liver carcinoma, 72 hour
Experimental: as §1, §2, §3
as §4, with “Curve-fitting, EC50/IC50 calculations and report generation are performed using a custom data reduction engine MathIQ based software (AIM).” left out

With `C[C@@H]1N[C@H](CNC(=O)c2cccc3c2C(=O)c2ccccc2-3)[C@@H](O)[C@H](O)[C@@H]1O` [Compound II] the “Mean Green Fluorescence (GRN-HLog)” value ([1]; HepG2, 24 hours compound then 48 hours fucose alkyne, Alexa Fluor 488 Azide) was 8433, the Fold over vehicle ([1]; mean green fluorescence, HepG2) was 2.98 and the G1/S arrest [2] was 14 µM. For the same compound, the G1/S arrest [3] was 70 µM, the G1/S arrest [4] was 21 µM and the G1/S arrest [5] was 78 µM. It also gave an EC50 at 72 h ([6]; A549 cells (lung carcinoma)) of 29 µM, an EC50 at 72 h ([6]; BxPC-3 cells (pancreas carcinoma), BxPC-3, pancreas carcinoma) of 43 µM and an EC50 at 72 h ([6]; HPH (normal primary hepatocytes), normal primary hepatocyte) greater than 100 µM. The EC50 at 72 h ([6]; HRPTEpiC cells (normal renal)) was 72 µM, the EC50 at 72 h ([6]; HT-29 cells (colon carcinoma), HT-29, colon carcinoma) was 31 µM and the EC50 at 72 h ([6]; HT-1080 cells (connective sarcoma), HT-1080, connective sarcoma) was 21 µM. For the same compound, the EC50 at 72 h ([6]; HUMSC cells (normal mesenchymal stem cells)) was 9 µM, the EC50 at 72 h ([6]; HUVEC cells (normal endothelium)) was 14 µM and the EC50 at 72 h ([6]; HeLa cells (cervix carcinoma)) was 47 µM. For the same compound, the EC50 at 72 h ([6]; K562 cells (blood leukemia)) was 98 µM, the EC50 at 72 h ([6]; LNCaP cells (prostate carcinoma)) was 54 µM and the EC50 at 72 h ([6]; MDA-MB-231 cells (breast carcinoma), MDA-MB-231, breast carcinoma) was 44 µM. The EC50 at 72 h ([6]; NHDF cells (normal skin)) was 22 µM, the EC50 at 72 h ([6]; SKOV3 cells (ovary carcinoma)) was greater than 100 µM and the EC50 at 72 h ([6]; SNU-423 cells (liver carcinoma), SNU-423, liver carcinoma) was greater than 100 µM. The EC50 at 72 h ([6]; U-87 MG cells (brain blastoma)) was 34 µM, the G1/S arrest [7] was 14 µM and the G1/S arrest [8] was 98 µM. For the same compound, the G1/S arrest [9] was 93 µM, the G1/S arrest [10] was 26 µM and the G1/S arrest [11] was 10 µM. For the same compound, the G1/S arrest [12] was 55 µM, the G1/S arrest [13] was 10 µM and the Primary effect [14] was “no effect”. It also gave an EC50 at 72 h [15] of 44 µM and a G1/S arrest [16] of 36 µM.
